Experiments:
Type in all cases: in vivo
[1] = test system: Abutilon theophrasti (ABUTH); assay: Pre-emergence herbicidal action against ABUTH; settings: 100% = plants have died
Procedure, shortened: (§1)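 Pre-emergence soil-surface spray of compound, formulated as wettable powder or emulsion concentrate, in aqueous suspension or emulsion with 0.5% additive (600 l/ha; rate 320 g/ha or less). Activity rated visually after roughly 3 weeks in the greenhouse as a percentage of untreated controls, 0% meaning no difference.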

[2] = test system: Alopecurus myosuroides (ALOMY); assay: Pre-emergence herbicidal action against ALOMY; settings: scored visually after about 3 weeks, 100% = plants have died
Procedure, shortened: as §1

[3] = test system: Amaranthus retroflexus (AMARE); assay: Pre-emergence herbicidal action against AMARE; settings: visual scoring after about 3 weeks vs untreated controls
Procedure, shortened: as §1

[4] = test system: Matricaria inodora (MATIN); assay: Pre-emergence herbicidal action against MATIN
Procedure, shortened: as §1

[5] = test system: Polygonum convolvulus (POLCO); assay: Pre-emergence herbicidal action against POLCO
Procedure, shortened: as §1

[6] = test system: Abutilon theophrasti (ABUTH); assay: Post-emergence herbicidal action against ABUTH; settings: visual rating about 3 weeks after treatment vs untreated controls (100% = plants have died, 0% = like control plants)
Procedure, shortened: (§2)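 Greenhouse plants sprayed at the one-leaf stage, 2–3 weeks after sowing, with WP or EC formulations plus 0.5% additive at 600 l/ha water. Activity rated visually after about 3 weeks versus untreated controls (100% = dead, 0% = like control), at 320 g/ha or lower.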

[7] = test system: Alopecurus myosuroides (ALOMY); assay: Post-emergence herbicidal action against ALOMY; settings: visual rating about 3 weeks after treatment vs untreated controls (100% = plants have died, 0% = like control plants)
Procedure, shortened: as §2

[8] = test system: Amaranthus retroflexus (AMARE); assay: Post-emergence herbicidal action against AMARE
Procedure, shortened: as §2

Lolium rigidum (LOLRI) = assay: Post-emergence herbicidal action against LOLRI
Procedure, shortened: as §2

[9] = test system: Polygonum convolvulus (POLCO); assay: Post-emergence herbicidal action against POLCO
Procedure, shortened: as §2

[10] = Dosage column 320 g/ha (title prints 3200 g/ha), scored visually after about 3 weeks
[11] = 80 g/ha, visual rating about 3 weeks after treatment vs untreated controls (100% = plants have died, 0% = like control plants)
[12] = 320 g/ha, visual rating about 3 weeks after treatment
[13] = 80 g/ha, scored visually after about 3 weeks vs untreated controls, 0% = like control plants

COC(=O)COc1nn(-c2ncccc2F)c(-c2cncc(F)c2)c1C1CC1 [Example I-167]
Pre-emergence action against ABUTH [1, 10]: 90%
Pre-emergence action against ALOMY ([2]; 80 g/ha): 90%
Pre-emergence action against ALOMY ([2]; 320 g/ha): 100%
Pre-emergence action against AMARE in % ([3]; 80 g/ha): 100%
Pre-emergence action against AMARE in % ([3]; 320 g/ha): 100%
Pre-emergence action against MATIN in % ([4]; dosage 80 g/ha): 90%
Pre-emergence action against MATIN in % ([4]; dosage 320 g/ha): 90%
Pre-emergence action against POLCO in % ([5]; dosage 80 g/ha): 90%
Pre-emergence action against POLCO in % ([5]; dosage 320 g/ha): 90%
Post-emergence action against ABUTH in % ([6]; 80 g/ha): 80%
Post-emergence action against ABUTH in % ([6]; 320 g/ha): 80%
Post-emergence action against ALOMY in % ([7]; 80 g/ha): 90%
Post-emergence action against ALOMY in % ([7]; 320 g/ha): 90%
Post-emergence action against AMARE in % [8, 11]: 80%
Post-emergence action against AMARE in % [8, 12]: 80%
Post-emergence action against LOLRI in % (Lolium rigidum (LOLRI); dosage 80 g/ha): 80%
Post-emergence action against LOLRI in % (Lolium rigidum (LOLRI); dosage 320 g/ha): 80%
Post-emergence action against POLCO in % ([9]; dosage 80 g/ha): 80%
Post-emergence action against POLCO in % ([9]; dosage 320 g/ha): 80%

COC(=O)COc1nn(-c2ncccc2F)c(-c2ccc(F)nc2)c1Br [Example I-07]
Pre-emergence action against ABUTH [1, 10]: 90%
Pre-emergence action against ALOMY ([2]; 80 g/ha): 90%
Pre-emergence action against ALOMY ([2]; 320 g/ha): 100%
Pre-emergence action against AMARE in % ([3]; 80 g/ha): 90%
Pre-emergence action against AMARE in % ([3]; 320 g/ha): 90%
Pre-emergence action against MATIN in % ([4]; dosage 80 g/ha): 80%
Pre-emergence action against MATIN in % ([4]; dosage 320 g/ha): 100%
Pre-emergence action against POLCO in % ([5]; dosage 80 g/ha): 90%
Pre-emergence action against POLCO in % ([5]; dosage 320 g/ha): 100%
Post-emergence action against ABUTH in % ([6]; 80 g/ha): 80%
Post-emergence action against ABUTH in % ([6]; 320 g/ha): 90%
Post-emergence action against ALOMY in % ([7]; 80 g/ha): 90%
Post-emergence action against ALOMY in % ([7]; 320 g/ha): 100%
Post-emergence action against AMARE in % [8, 11]: 90%
Post-emergence action against AMARE in % [8, 12]: 90%
Post-emergence action against LOLRI in % (Lolium rigidum (LOLRI); dosage 320 g/ha): 90%
Post-emergence action against POLCO in % ([9]; dosage 80 g/ha): 80%
Post-emergence action against POLCO in % ([9]; dosage 320 g/ha): 80%

COC(=O)C(C)NC(=O)[C@@H](C)Oc1nn(-c2ccccn2)c(-c2cncc(F)c2)c1Br (stereo partly shown) [Example I-190]
Pre-emergence action against ABUTH [1, 10]: 80%
Pre-emergence action against ALOMY ([2]; 80 g/ha): 80%
Pre-emergence action against ALOMY ([2]; 320 g/ha): 90%
Pre-emergence action against AMARE in % ([3]; 80 g/ha): 90%
Pre-emergence action against AMARE in % ([3]; 320 g/ha): 100%
Pre-emergence action against MATIN in % ([4]; dosage 80 g/ha): 90%
Pre-emergence action against MATIN in % ([4]; dosage 320 g/ha): 90%
Pre-emergence action against POLCO in % ([5]; dosage 80 g/ha): 90%
Pre-emergence action against POLCO in % ([5]; dosage 320 g/ha): 90%
Post-emergence action against ABUTH in % ([6]; 80 g/ha): 80%
Post-emergence action against ABUTH in % ([6]; 320 g/ha): 80%
Post-emergence action against ALOMY in % ([7]; 80 g/ha): 80%
Post-emergence action against ALOMY in % ([7]; 320 g/ha): 100%
Post-emergence action against AMARE in % [8, 12]: 80%
Post-emergence action against LOLRI in % (Lolium rigidum (LOLRI); dosage 80 g/ha): 90%
Post-emergence action against LOLRI in % (Lolium rigidum (LOLRI); dosage 320 g/ha): 90%
Post-emergence action against POLCO in % ([9]; dosage 80 g/ha): 80%
Post-emergence action against POLCO in % ([9]; dosage 320 g/ha): 80%

CCOC(=O)[C@@H](C)Oc1nn(-c2nc(F)ccc2F)c(-c2cncc(F)c2)c1Cl [Example I-208]
Pre-emergence action against ABUTH [1, 13]: 80%
Pre-emergence action against ABUTH [1, 10]: 90%
Pre-emergence action against ALOMY ([2]; 80 g/ha): 90%
Pre-emergence action against ALOMY ([2]; 320 g/ha): 100%
Pre-emergence action against AMARE in % ([3]; 80 g/ha): 90%
Pre-emergence action against AMARE in % ([3]; 320 g/ha): 100%
Pre-emergence action against MATIN in % ([4]; dosage 80 g/ha): 90%
Pre-emergence action against MATIN in % ([4]; dosage 320 g/ha): 90%
Pre-emergence action against POLCO in % ([5]; dosage 80 g/ha): 90%
Pre-emergence action against POLCO in % ([5]; dosage 320 g/ha): 90%
Post-emergence action against ABUTH in % ([6]; 80 g/ha): 80%
Post-emergence action against ABUTH in % ([6]; 320 g/ha): 90%
Post-emergence action against ALOMY in % ([7]; 320 g/ha): 80%
Post-emergence action against AMARE in % [8, 12]: 80%
Post-emergence action against LOLRI in % (Lolium rigidum (LOLRI); dosage 320 g/ha): 80%
Post-emergence action against POLCO in % ([9]; dosage 320 g/ha): 80%

CCOC(=O)[C@@H](C)Oc1nn(-c2ncccc2F)c(-c2ccc(F)nc2)c1C1CC1 [Example I-375]
Pre-emergence action against ABUTH [1, 10]: 100%
Pre-emergence action against ALOMY ([2]; 80 g/ha): 80%
Pre-emergence action against ALOMY ([2]; 320 g/ha): 90%
Pre-emergence action against AMARE in % ([3]; 80 g/ha): 100%
Pre-emergence action against AMARE in % ([3]; 320 g/ha): 100%
Pre-emergence action against MATIN in % ([4]; dosage 80 g/ha): 100%
Pre-emergence action against MATIN in % ([4]; dosage 320 g/ha): 100%
Pre-emergence action against POLCO in % ([5]; dosage 80 g/ha): 90%
Pre-emergence action against POLCO in % ([5]; dosage 320 g/ha): 90%
Post-emergence action against ABUTH in % ([6]; 80 g/ha): 90%
Post-emergence action against ABUTH in % ([6]; 320 g/ha): 90%
Post-emergence action against ALOMY in % ([7]; 80 g/ha): 100%
Post-emergence action against ALOMY in % ([7]; 320 g/ha): 100%
Post-emergence action against AMARE in % [8, 11]: 80%
Post-emergence action against AMARE in % [8, 12]: 80%
Post-emergence action against LOLRI in % (Lolium rigidum (LOLRI); dosage 80 g/ha): 90%
Post-emergence action against LOLRI in % (Lolium rigidum (LOLRI); dosage 320 g/ha): 90%
Post-emergence action against POLCO in % ([9]; dosage 80 g/ha): 80%
Post-emergence action against POLCO in % ([9]; dosage 320 g/ha): 90%

COC(=O)CCOC(=O)[C@@H](C)Oc1nn(-c2ccccn2)c(-c2cncc(F)c2)c1Cl [Example I-196]
Pre-emergence action against ABUTH [1, 13]: 80%
Pre-emergence action against ABUTH [1, 10]: 90%
Pre-emergence action against ALOMY ([2]; 320 g/ha): 90%
Pre-emergence action against AMARE in % ([3]; 80 g/ha): 100%
Pre-emergence action against AMARE in % ([3]; 320 g/ha): 100%
Pre-emergence action against MATIN in % ([4]; dosage 80 g/ha): 90%
Pre-emergence action against MATIN in % ([4]; dosage 320 g/ha): 90%
Pre-emergence action against POLCO in % ([5]; dosage 80 g/ha): 90%
Pre-emergence action against POLCO in % ([5]; dosage 320 g/ha): 90%
Post-emergence action against ABUTH in % ([6]; 80 g/ha): 80%
Post-emergence action against ABUTH in % ([6]; 320 g/ha): 80%
Post-emergence action against ALOMY in % ([7]; 80 g/ha): 80%
Post-emergence action against ALOMY in % ([7]; 320 g/ha): 90%
Post-emergence action against AMARE in % [8, 11]: 80%
Post-emergence action against AMARE in % [8, 12]: 80%
Post-emergence action against LOLRI in % (Lolium rigidum (LOLRI); dosage 80 g/ha): 90%
Post-emergence action against LOLRI in % (Lolium rigidum (LOLRI); dosage 320 g/ha): 90%
Post-emergence action against POLCO in % ([9]; dosage 80 g/ha): 80%
Post-emergence action against POLCO in % ([9]; dosage 320 g/ha): 80%
